Laboratory results from US20240092756A1, “METHODS AND COMPOSITION FOR KRAS MODIFICATIONS” (2692372 ONTARIO, INC., priority 2020, published 2024).

Legend:
KRAS G12C = KRAS G12C (Homo sapiens, UniProt P01116, G12C); assay: SOS1-catalyzed KRAS coupled nucleotide exchange assay (Alpha technology); format: biochemical; set-up: His; key: A: KRAS G12C bound and modulated; settings: inhibition of SOS1 mediated KRAS nucleotide exchange
Protocol: Method I: The inhibition of the SOS1-catalyzed nucleotide exchange activity of KRAS (e.g., KRAS G12C/C118A) was measured using Alpha (Amplified Luminescent Proximity Homogeneous Assay) technology. 20 nM GDP-bound human KRAS (G12C/C118A) protein was incubated with two-fold serially-diluted test compound or DMSO for 5 minutes at ambient temperature in reaction buffer (25 mM HEPES, pH 7.4; 10 mM MgCl2; 0.01% Triton X-100). For all subsequent steps, DTT was added to the reaction buffer at a final concentration of 1 mM. Next, GTP and SOS-1 were added in DTT-reaction buffer at final concentrations of 1.25 mM or 500 nM, respectively, and incubated at RT for 30 minutes. Finally, c-RAF RBD (50 nM final), Alpha glutathione donor beads (PerkinElmer; 20 μg/mL final), and AlphaLISAnickel chelate acceptor beads (PerkinElmer; 20 μg/mL final), all diluted in DTT-reaction buffer, were added. The reaction mixture was incubated at RT for 5 min, and then the plates were read on an EnVision® Multilabel Reader using the AlphaScreen protocol. Luminescence signal was measured at 570 nm following a 180 ms excitation at 680 nm. Signal intensity corresponded with the association of c-RAF RBD with GTP-bound KRAS G12C/C118A and was normalized to DMSO control.
Method II: Inhibition of the SOS1-catalyzed nucleotide exchange activity of KRAS^G12C was measured using Alpha technology (PerkinElmer). 50 nM GDP-bound human KRAS^G12C protein was incubated with serially-diluted compound or DMSO for 2 hrs at RT in RBD-RAS binding buffer (BPSBioscience). 1 mM GTP and 500 nM SOS-1 were added to the reaction mixture and incubated at RT for 30 min. GST-tagged RBD-cRAF was then added to the reaction mixture at a final concentration of 2.5 nM and incubated at RT for 30 min. Finally, Alpha Glutathione acceptor beads and Nickel chelate donor beads (PerkinElmer) were diluted to 1:500 and 1:250, respectively, and added to the reaction mixture. The final reaction was incubated at RT for 30 min. Plates were read on a TECAN SPARK® Multiplate Reader. The luminescence signal was measured at 615 nm following excitation at 680 nm. Signal intensity was normalized to DMSO control.

[1] = system: phospho-ERK1/2 in MIA PaCa-2 cells (express KRAS G12C); assay: ERK1/2 phosphorylation in MIA PaCa-2 cells; format: cell-based, human; set-up: key: X: KRAS G12C bound and modulated in cells
Protocol: MIA PaCa-2 cells were cultured in Dulbecco's Modified Eagle's Medium (Wisent) supplemented with 10% FBS, 2.5% horse serum, and 1% penicillin/streptomycin. Cells were seeded in 6-well plates at 500,000 cells/well and incubated at 37° C., 5% CO2 for 16 hours. Cells were treated with the indicated concentrations of compound or DMSO alone and incubated at 37° C., 5% CO2 for 6 or 24 hours. Conditioned media was discarded, and adherent cells were washed with PBS before they were scraped. Cell suspensions were centrifugated at 2,000 RPM for 5 minutes at 4° C. and supernatants were discarded. Cell pellets were resuspended with 1×RIPA buffer (Millipore) and incubated on ice for 15 minutes. Protein lysates were extracted by centrifugating at 20,000 RPM for 20 minutes at 4° C. Proteins were separated and total KRas protein levels were quantified by Simple Western Immunoassay (ProteinSimple) using the 2-40 kDa Separation Module for Jess according to the manufacturer's protocol, using a protein concentration of 0.5 μg/μl and antibodies targeting KRas (clone #4F3, Sigma) and GAPDH (clone #14C10, Cell Signaling) diluted to 1:10 and 1:1600, respectively, where the latter was used as a loading control. A 3:1 ratio of rabbit to mouse HRP-conjugated secondary antibodies was used for detection. KRas protein levels were quantified relative to GAPDH loading levels and subsequently normalized to the DMSO control. Phosphorylated ERK1/2 levels were quantified by Simple Western Immunoassay (ProteinSimple) using the Protein Normalization Assay Module for Jess according to the manufacturer's protocol using a protein concentration of 0.5 μg/μl and an antibody targeting phosphor-ERK1/2 (clone #D13.14.4E, Cell Signalling) diluted to 1:10. Phosphorylated ERK1/2 levels were normalized to the Jess Protein Normalization Reagent loading control and subsequently to the DMSO control.
MIA PaCa-2 cells were cultured in Dulbecco's Modified Eagle's Medium (Wisent) supplemented with 10% FBS, 2.5% horse serum, and 1% penicillin/streptomycin. Cells were seeded in 96-well plates at a density of 25,000 cells/well and incubated at 37° C., 5% CO2 for 24 hours. The next day, cells were starved in cell culture media containing 1% FBS only at 37° C., 5% CO2 for 16 hours. Following starvation, serially-diluted compounds or DMSO alone were added to cells and incubated at 37° C., 5% CO2 for 1 or 3 hours. Prior to cell lysis, 25 ng/ml human epidermal growth factor (hEGF) (Sigma) was added to the cells and incubated at 37° C., 5% CO2 for 10 minutes. Conditioned media was discarded, and adherent cells lysed and basal ERK1/2 phosphorylation levels were measured using the Phospho-ERK (Thr202/Tyr204) Cellular HTRF kit (Perkin Elmer) according to the manufacturer's protocol. The fluorescent signal of the acceptor antibody at a wavelength of 665 nm was normalized to that of the donor antibody at 620 nm. HTRF ratios were plotted and relative IC50 values were obtained using Prism (GraphPad).

| SMILES | KRAS-SOS1 Nucleotide Exchange (KRAS G12C) | pERK - MIA PaCa-2 - (6 hours, 5 uM) [1] |
| --- | --- | --- |
| O=S(=O)(c1c(F)c(F)c(F)c(F)c1OC(F)F)N1CCN(c2ncnc3c2CCN(c2cccc4ccccc24)C3)CC1 [Compound 30A, 4-(4-((2-(difluoromethoxy)-3,4,5,6-tetrafluorophenyl)sulfonyl)piperazin-1-yl)-7-(naphthalen-1-yl)-5,6,7,8-tetrahydropyrido[3,4-d]pyrimidine] | A | – |
| Cc1cccc(C)c1-c1cc2nccc(N3CC(Nc4c(F)c(F)c([S@+](C)[O-])c(F)c4F)C3)c2cc1Cl (racemic) [Compound 27A] | A | – |
| C[S+]([O-])c1c(F)c(F)c(NC2CN(c3ncnc4cc(-c5ccccc5F)c(Cl)cc34)C2)c(F)c1F (racemic) [Compound 28A, 1-(6-chloro-7-(2-fluorophenyl)quinazolin-4-yl)-N-(2,3,5,6-tetrafluoro-4-(methylsulfinyl)phenyl)azetidin-3-amine] | A | – |
| Cc1cccc(C)c1-c1cc2nccc(N3CCN(Cc4c(F)c(F)c(F)c(F)c4S(C)(=O)=O)C[C@@H]3C)c2cc1Cl [Compound 45A, (S)-6-chloro-7-(2,6-dimethylphenyl)-4-(2-methyl-4-(2,3,4,5-tetrafluoro-6-(methylsulfonyl)benzyl)piperazin-1-yl)quinoline] | A | – |
| CSc1c(F)c(F)c(N2CCN(c3ccnc4c(F)c(-c5c(O)cccc5F)c(Cl)cc34)[C@@H](C)C2)c(F)c1F [Compound 29A, 2-(6-chloro-8-fluoro-4-((S)-2-methyl-4-(2,3,5,6-tetrafluoro-4-(methylthio)phenyl)piperazin-1-yl)quinolin-7-yl)-3-fluorophenol] | A | – |
| CS(=O)(=O)c1c(F)c(F)c(F)c(F)c1NC1CN(c2ncnc3cc(-c4ccccc4F)c(Cl)cc23)C1 [Compound 36A, 1-(6-chloro-7-(2-fluorophenyl)quinazolin-4-yl)-N-(2,3,4,5-tetrafluoro-6-(methylsulfonyl)phenyl)azetidin-3-amine] | – | X |
| CS(=O)(=O)c1c(F)c(F)c(NC2CN(c3ncnc4cc(-c5ccccc5F)c(Cl)cc34)C2)c(F)c1F [Compound 23A, 1-(6-chloro-7-(2-fluorophenyl)quinazolin-4-yl)-N-(2,3,5,6-tetrafluoro-4-(methylsulfonyl)phenyl)azetidin-3-amine] | A | – |
| C[C@H]1CN(c2c(F)c(F)c(S(C)(=O)=O)c(F)c2F)CCN1c1ccnc2c(F)c(-c3c(O)cccc3F)c(Cl)cc12 (single isomer, unassigned) [Compound 25A] | A | – |
| C[C@H]1CN(c2c(F)c(F)c(S(C)(=O)=O)c(F)c2F)CCN1c1ccnc2c(F)c(-c3c(O)cccc3F)c(Cl)cc12 (single isomer, unassigned) [Compound 26A] | A | – |
| C[C@H]1CN(c2c(F)c(F)c(F)c(F)c2S(C)(=O)=O)CCN1c1ncnc2cc(-c3ccccc3F)c(Cl)cc12 [Compound 34A, (S)-6-chloro-7-(2-fluorophenyl)-4-(2-methyl-4-(2,3,4,5-tetrafluoro-6-(methylsulfonyl)phenyl)piperazin-1-yl)quinazoline] | – | X |
| C[C@H]1CN(c2c(F)c(F)c(F)c(F)c2[S+](C)[O-])CCN1c1ncnc2cc(-c3ccccc3F)c(Cl)cc12 (stereo partly drawn) [Compound 38A, 6-chloro-7-(2-fluorophenyl)-4-((2S)-2-methyl-4-(2,3,4,5-tetrafluoro-6-(methylsulfinyl)phenyl)piperazin-1-yl)quinazoline] | A | – |
| Cc1cccc(C)c1-c1cc2nccc(N3CC(Nc4c(F)c(F)c(S(C)(=O)=O)c(F)c4F)C3)c2cc1Cl [Compound 22A, 1-(6-chloro-7-(2,6-dimethylphenyl)quinolin-4-yl)-N-(2,3,5,6-tetrafluoro-4-(methylsulfonyl)phenyl)azetidin-3-amine] | A | – |
| CSc1c(F)c(F)c(F)c(F)c1N1CC(Nc2ncnc3cc(-c4ccccc4F)c(Cl)cc23)C1 [Compound 47A, 6-chloro-7-(2-fluorophenyl)-N-(1-(2,3,4,5-tetrafluoro-6-(methylthio)phenyl)azetidin-3-yl)quinazolin-4-amine] | A | – |
| COc1cc(N2CCc3c(ncnc3N3CCN(S(=O)(=O)c4c(F)c(F)c(F)c(F)c4C(F)(F)F)CC3)C2)c2ccccc2c1 [Compound 40A, 7-(3-methoxy-1-naphthyl)-4-[4-[2,3,4,5-tetrakis(fluoranyl)-6-[tris(fluoranyl)methyl]phenyl]sulfonylpiperazin-1-yl]-6,8-dihydro-5H-pyrido[3,4-d]pyrimidine] | – | X |
| C[C@H]1CN(Cc2c(F)c(F)c(F)c(F)c2[S+](C)[O-])CCN1c1ncnc2cc(-c3ccccc3F)c(Cl)cc12 (stereo partly drawn) [Compound 46A, 6-chloro-7-(2-fluorophenyl)-4-((2S)-2-methyl-4-(2,3,4,5-tetrafluoro-6-(methylsulfinyl)benzyl)piperazin-1-yl)quinazoline] | – | X |
| C[C@H]1CN(c2c(F)c(F)c(S(C)(=O)=O)c(F)c2F)CCN1c1ccnc2c(F)c(-c3c(O)cccc3F)c(Cl)cc12 (racemic) [Compound 24A, 2-(6-chloro-8-fluoro-4-((S)-2-methyl-4-(2,3,5,6-tetrafluoro-4-(methylsulfonyl)phenyl)piperazin-1-yl)quinolin-7-yl)-3-fluorophenol] | A | – |
| O=S(=O)(c1c(F)c(F)c(F)c(F)c1C(F)(F)F)N1CCN(c2ncnc3c2CCN(c2cccc4ccccc24)C3)CC1 [Compound 33A, 7-(naphthalen-1-yl)-4-(4-((2,3,4,5-tetrafluoro-6-(trifluoromethyl)phenyl)sulfonyl)piperazin-1-yl)-5,6,7,8-tetrahydropyrido[3,4-d]pyrimidine] | – | X |
| O=S(=O)(NC1CN(c2ncnc3c2CCN(c2cccc4cccc(Cl)c24)C3)C1)c1c(F)c(F)c(F)c(F)c1F [Compound 21A, N-(1-(7-(8-chloronaphthalen-1-yl)-5,6,7,8-tetrahydropyrido[3,4-d]pyrimidin-4-yl)azetidin-3-yl)-2,3,4,5,6-pentafluorobenzenesulfonamide] | A | – |
| O=S(=O)(c1c(F)c(F)c(F)c(F)c1C(F)(F)F)N1CCN(c2ncnc3c2CCN(c2cccc4cccc(Cl)c24)C3)CC1 [Compound 32A, 7-(8-chloronaphthalen-1-yl)-4-(4-((2,3,4,5-tetrafluoro-6-(trifluoromethyl)phenyl)sulfonyl)piperazin-1-yl)-5,6,7,8-tetrahydropyrido[3,4-d]pyrimidine] | – | X |
